# Data taken from paper doi:10.1101/2025.10.23.684218v2, “Development of a dual chemical probe for the USP16 and HDAC6 zinc-finger ubiquitin-binding domain” (biorxiv, 2025).
# What was measured:
# USP16-UBD (USP16 8-185) = USP16-UBD (USP16 8-185) (Homo sapiens, UniProt Q9Y5T5); assay: ITC; format: binding
# NanoLuc-tagged HDAC6 [1] = molecular target: T1, NanoLuc-tagged HDAC6 (Homo sapiens, UniProt Q9UBN7); assay: NanoBRET displacement of HaloTag-ISG15; format: cell-based
# T1 construct: N-terminal NanoLuc fusion in HEK293T
# T1 sequence (Q9UBN7 1-1215): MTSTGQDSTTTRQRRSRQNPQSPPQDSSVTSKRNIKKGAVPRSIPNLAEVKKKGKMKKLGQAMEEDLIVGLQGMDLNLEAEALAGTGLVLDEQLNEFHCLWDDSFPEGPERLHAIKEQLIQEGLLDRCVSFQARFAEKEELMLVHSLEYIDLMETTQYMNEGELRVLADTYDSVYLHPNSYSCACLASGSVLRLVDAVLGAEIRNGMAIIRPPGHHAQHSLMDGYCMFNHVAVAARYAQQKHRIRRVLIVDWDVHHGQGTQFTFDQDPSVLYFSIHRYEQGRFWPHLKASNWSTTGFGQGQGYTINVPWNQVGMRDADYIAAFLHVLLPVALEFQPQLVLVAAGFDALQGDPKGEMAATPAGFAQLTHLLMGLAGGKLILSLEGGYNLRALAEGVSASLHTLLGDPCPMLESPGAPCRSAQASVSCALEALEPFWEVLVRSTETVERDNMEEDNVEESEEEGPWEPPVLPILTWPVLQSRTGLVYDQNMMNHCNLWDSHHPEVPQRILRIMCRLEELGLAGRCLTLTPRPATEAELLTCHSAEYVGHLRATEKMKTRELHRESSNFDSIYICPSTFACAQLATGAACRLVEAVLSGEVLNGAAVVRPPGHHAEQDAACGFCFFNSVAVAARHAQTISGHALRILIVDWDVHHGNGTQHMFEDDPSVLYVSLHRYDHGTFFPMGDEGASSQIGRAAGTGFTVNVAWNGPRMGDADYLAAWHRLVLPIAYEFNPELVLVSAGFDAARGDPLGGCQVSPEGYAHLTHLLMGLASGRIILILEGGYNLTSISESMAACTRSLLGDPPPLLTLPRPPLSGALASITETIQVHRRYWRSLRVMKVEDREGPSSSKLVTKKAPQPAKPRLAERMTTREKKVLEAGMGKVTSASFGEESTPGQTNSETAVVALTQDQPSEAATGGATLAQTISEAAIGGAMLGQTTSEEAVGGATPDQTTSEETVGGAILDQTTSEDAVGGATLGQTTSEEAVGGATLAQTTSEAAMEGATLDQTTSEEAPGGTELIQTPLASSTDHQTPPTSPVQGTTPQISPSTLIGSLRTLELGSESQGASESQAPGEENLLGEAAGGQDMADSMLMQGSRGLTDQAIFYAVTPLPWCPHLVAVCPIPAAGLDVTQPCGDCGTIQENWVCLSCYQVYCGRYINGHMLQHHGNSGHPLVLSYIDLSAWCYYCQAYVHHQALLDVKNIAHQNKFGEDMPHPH
# USP16-FL (USP16 1-823) = molecular target: T2, USP16-FL (USP16 1-823) (Homo sapiens, UniProt Q9Y5T5); assay: ubiquitin-rhodamine110 DUB assay; format: biochemical; settings: […] ubiquitin-rhodamine-[…] enzyme, pH […], up to […] compound
# T2 construct: full length 1-823, pFBOH-LIC, Sf9 baculovirus, Ni-NTA and MonoQ
# T2 sequence (Q9Y5T5 whole entry): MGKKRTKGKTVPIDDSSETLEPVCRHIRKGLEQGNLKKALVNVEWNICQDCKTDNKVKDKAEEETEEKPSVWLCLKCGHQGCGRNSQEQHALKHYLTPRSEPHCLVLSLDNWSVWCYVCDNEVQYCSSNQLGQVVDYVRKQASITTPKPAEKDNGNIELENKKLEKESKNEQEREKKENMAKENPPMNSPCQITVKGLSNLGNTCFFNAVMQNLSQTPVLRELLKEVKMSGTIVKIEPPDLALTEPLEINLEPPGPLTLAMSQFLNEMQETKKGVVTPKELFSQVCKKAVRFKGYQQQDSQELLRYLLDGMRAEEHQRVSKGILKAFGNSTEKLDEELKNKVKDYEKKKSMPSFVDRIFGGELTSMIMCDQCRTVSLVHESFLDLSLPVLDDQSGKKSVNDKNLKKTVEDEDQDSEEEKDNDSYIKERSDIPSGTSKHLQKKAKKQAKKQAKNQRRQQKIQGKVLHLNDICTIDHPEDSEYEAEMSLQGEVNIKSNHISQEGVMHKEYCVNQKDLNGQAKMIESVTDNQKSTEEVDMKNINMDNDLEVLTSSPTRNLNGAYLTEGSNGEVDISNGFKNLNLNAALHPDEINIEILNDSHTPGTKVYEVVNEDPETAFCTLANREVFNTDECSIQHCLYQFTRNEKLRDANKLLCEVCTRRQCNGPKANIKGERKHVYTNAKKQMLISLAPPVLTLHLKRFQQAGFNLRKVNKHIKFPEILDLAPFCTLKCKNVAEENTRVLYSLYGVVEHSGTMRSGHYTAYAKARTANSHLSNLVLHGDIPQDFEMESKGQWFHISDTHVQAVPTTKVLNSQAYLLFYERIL
# NanoLuc-tagged USP16 = molecular target: T3, NanoLuc-tagged USP16 (Homo sapiens, UniProt Q9Y5T5); assay: NanoBRET displacement of HaloTag-ISG15; format: cell-based; settings: HEK293T cells, […]
# T3 construct: N-terminal NanoLuc fusion in HEK293T
# T3 sequence (Q9Y5T5 whole entry, the tested form may be a part): as the sequence (Q9Y5T5 whole entry) above
# NanoLuc-tagged HDAC6 [2] = molecular target: T1, NanoLuc-tagged HDAC6; assay: NanoBRET displacement of HaloTag-ISG15; format: cell-based; settings: HEK293T cells, […]
# USP16-UBD (USP16 25-185) = USP16-UBD (USP16 25-185) (Homo sapiens, UniProt Q9Y5T5); assay: biochemical; parameters: SPR, steady-state binding to immobilised biotinylated UBD proteins; settings: read-out: Negative Control KD (nM) SGC-UBD1031N
# Sequence of USP16-UBD (USP16 25-185) (Q9Y5T5 25-185): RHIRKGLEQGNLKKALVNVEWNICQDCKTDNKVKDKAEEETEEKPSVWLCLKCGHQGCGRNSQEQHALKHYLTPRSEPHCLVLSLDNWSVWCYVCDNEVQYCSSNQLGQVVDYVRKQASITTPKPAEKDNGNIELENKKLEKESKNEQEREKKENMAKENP
# Sequence of USP16-UBD (USP16 8-185) (Q9Y5T5 8-185): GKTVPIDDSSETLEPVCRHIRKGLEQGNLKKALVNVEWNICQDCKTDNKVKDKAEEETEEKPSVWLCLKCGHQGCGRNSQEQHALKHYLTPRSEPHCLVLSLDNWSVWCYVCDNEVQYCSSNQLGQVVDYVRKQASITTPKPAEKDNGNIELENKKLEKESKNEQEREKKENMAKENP
Structure (SMILES),Kd (USP16-UBD (USP16 8-185)),IC50 (NanoLuc-tagged HDAC6 [1]),ubiquitin-rhodamine110 DUB assay (USP16-FL (USP16 1-823)),NanoBRET displacement of HaloTag-ISG15 (NanoLuc-tagged USP16),NanoBRET displacement of HaloTag-ISG15 (NanoLuc-tagged HDAC6 [2]),Kd (USP16-UBD (USP16 25-185))
"C[C@H](NC(=O)Cn1c(CCC(=O)O)nc2c(Cl)cccc2c1=O)c1c(F)cccc1F [compound 15, (S)-3-(8-chloro-3-(2-((1-(2,6-difluorophenyl)ethyl)amino)-2-oxoethyl)-4-oxo-3,4-dihydroquinazolin-2-yl)propanoic acid]",50 nM,1500 ± 200 nM,,,,
"C[C@@H](NC(=O)Cn1c(CCC(=O)O)nc2c(Cl)cccc2c1=O)c1c(F)cccc1F [compound 16, (R)-3-(8-chloro-3-(2-((1-(2,6-difluorophenyl)ethyl)amino)-2-oxoethyl)-4-oxo-3,4-dihydroquinazolin-2-yl)propanoic acid]",,,the negative control shows no inhibition of DUB activity,SGC-UBD1031N did not inhibit the interaction of HDAC6 or USP16 and ISG15,SGC-UBD1031N did not inhibit the interaction of HDAC6 or USP16 and ISG15,1770 ± 300 nM
